Assay results from paper PMC6631349 (Xenobiotica; the fate of foreign compounds in biological …, 2014).
Read-outs that look alike come from different tables or passages of the source.

Legend:
[1] = target: T1, UGT1A3 (Homo sapiens, UniProt P35503); experiment: UGT1A3 supersomes-catalyzed 4-MU glucuronidation inhibition; conditions: recombinant human UGT, mean of triplicate
T1 sequence (P35503 29-534): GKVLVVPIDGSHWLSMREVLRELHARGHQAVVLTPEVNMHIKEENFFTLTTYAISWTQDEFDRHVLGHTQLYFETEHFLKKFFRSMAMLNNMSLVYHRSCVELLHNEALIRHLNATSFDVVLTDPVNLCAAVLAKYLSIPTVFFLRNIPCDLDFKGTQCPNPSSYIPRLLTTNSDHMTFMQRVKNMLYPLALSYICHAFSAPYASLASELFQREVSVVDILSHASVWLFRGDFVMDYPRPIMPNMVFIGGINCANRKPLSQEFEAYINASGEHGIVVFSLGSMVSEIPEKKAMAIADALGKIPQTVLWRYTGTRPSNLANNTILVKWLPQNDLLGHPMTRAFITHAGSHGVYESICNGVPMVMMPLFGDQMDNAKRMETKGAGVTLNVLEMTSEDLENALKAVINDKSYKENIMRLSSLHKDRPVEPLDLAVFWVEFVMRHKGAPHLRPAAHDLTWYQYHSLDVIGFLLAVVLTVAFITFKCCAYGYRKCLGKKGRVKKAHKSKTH

[2] = target: T2, UGT1A8 (Homo sapiens, UniProt Q9HAW9); conditions: for residual activity 1A8: recombinant human UGT, mean of triplicate
T2 sequence (Q9HAW9 26-530): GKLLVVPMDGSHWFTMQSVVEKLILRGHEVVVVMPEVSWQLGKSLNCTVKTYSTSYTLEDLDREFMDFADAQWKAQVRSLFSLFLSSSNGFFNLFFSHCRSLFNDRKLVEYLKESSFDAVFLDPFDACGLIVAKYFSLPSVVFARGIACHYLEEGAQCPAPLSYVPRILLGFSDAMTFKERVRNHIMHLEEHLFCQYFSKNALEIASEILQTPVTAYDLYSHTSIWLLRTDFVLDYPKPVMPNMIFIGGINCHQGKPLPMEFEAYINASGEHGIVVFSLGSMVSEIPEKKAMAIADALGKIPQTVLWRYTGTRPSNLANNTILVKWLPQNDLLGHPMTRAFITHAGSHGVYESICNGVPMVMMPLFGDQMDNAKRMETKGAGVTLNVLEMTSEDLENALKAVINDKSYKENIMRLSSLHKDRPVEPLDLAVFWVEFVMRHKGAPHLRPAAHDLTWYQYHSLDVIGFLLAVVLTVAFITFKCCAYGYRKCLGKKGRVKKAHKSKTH

[3] = target: T3, UGT1A9 (Homo sapiens, UniProt O60656); experiment: UGT1A9 supersomes-catalyzed 4-MU glucuronidation inhibition; conditions: recombinant human UGT, mean of triplicate
T3 sequence (O60656 26-530): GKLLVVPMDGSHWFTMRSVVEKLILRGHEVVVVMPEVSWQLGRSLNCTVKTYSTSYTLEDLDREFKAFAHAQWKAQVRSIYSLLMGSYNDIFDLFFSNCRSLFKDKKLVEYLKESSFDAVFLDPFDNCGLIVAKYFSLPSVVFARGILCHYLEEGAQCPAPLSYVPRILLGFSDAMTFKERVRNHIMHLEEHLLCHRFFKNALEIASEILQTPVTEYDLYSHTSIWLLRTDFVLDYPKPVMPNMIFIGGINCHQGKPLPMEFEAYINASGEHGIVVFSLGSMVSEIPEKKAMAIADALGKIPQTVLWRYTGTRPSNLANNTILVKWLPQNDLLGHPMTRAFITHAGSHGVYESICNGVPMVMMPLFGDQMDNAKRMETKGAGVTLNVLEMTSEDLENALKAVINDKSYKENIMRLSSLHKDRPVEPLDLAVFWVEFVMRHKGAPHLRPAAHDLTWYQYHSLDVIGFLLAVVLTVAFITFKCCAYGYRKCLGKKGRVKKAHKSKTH

[4] = tested on: UGT isoforms; experiment: Initial screening towards all UGT isoforms; type: biochemical, human; conditions: about 50 μM; isoforms not given

Row | SMILES | residual activity 1A3 ([1]; 50 μM LPC components) [%] | residual activity 1A8 ([2]; 50 μM LPC components) [%] | residual activity 1A9 ([3]; 50 μM LPC components) [%] | inhibition of activity of UGT isoforms [4] | inhibition kinetic type towards UGT1A8 ([2]; Dixon and Lineweaver-Burk plots, 4-MU glucuronidation) | residual activity 1A3 ([1]; 50 μM PC components) [%] | residual activity 1A8 ([2]; 50 μM PC components) [%] | residual activity 1A9 ([3]; 50 μM PC components) [%]
1 | CCCCCC(=O)OC[C@@H](O)COP(=O)([O-])OCC[N+](C)(C)C [LPC 6:0] | 84.4 | 108.0 | 95.9 |  |  |  |  | 
2 | CCCCCCC(=O)OCC(O)COP(=O)([O-])OCC[N+](C)(C)C (stereo not shown) [LPC 7:0] | 80.4 | 101.1 | 92.9 |  |  |  |  | 
3 | CCCCCCCC(=O)OCC(O)COP(=O)([O-])OCC[N+](C)(C)C (stereo not shown) [LPC 8:0] | 80.3 | 102.7 | 99.6 |  |  |  |  | 
4 | CCCCCCCCC(=O)OC[C@@H](O)COP(=O)([O-])OCC[N+](C)(C)C [LPC 9:0] | 79.6 | 101.2 | 94.5 |  |  |  |  | 
5 | CCCCCCCCCC(=O)OC[C@@H](O)COP(=O)([O-])OCC[N+](C)(C)C [LPC 10:0] | 75.9 | 100.7 | 99.2 |  |  |  |  | 
6 | CCCCCCCCCCC(=O)OC[C@@H](O)COP(=O)([O-])OCC[N+](C)(C)C [LPC 11:0] | 75.9 | 124.0 | 104.6 |  |  |  |  | 
7 | CCCCCCCCCCCC(=O)OC[C@@H](O)COP(=O)([O-])OCC[N+](C)(C)C [LPC 12:0] | 74.8 | 89.2 | 89.2 |  |  |  |  | 
8 | CCCCCCCCCCCCC(=O)OC[C@@H](O)COP(=O)([O-])OCC[N+](C)(C)C [LPC 13:0] | 88.1 | 101.6 | 99.4 |  |  |  |  | 
9 | CCCCCCCCCCCCCC(=O)OC[C@@H](O)COP(=O)([O-])OCC[N+](C)(C)C [LPC 14:0] | 74.2 | 19.2 | 97.5 |  |  |  |  | 
10 | CCCCCCCCCCCCCCC(=O)OC[C@@H](O)COP(=O)([O-])OCC[N+](C)(C)C [LPC 15:0] | 52.8 | 1.6 | 82.8 | more than 90% |  |  |  | 
11 | CCCCCCCCCCCCCCCCC(=O)OC[C@@H](O)COP(=O)([O-])OCC[N+](C)(C)C [LPC 17:0] | 119.0 | 2.2 | 87.5 | more than 90% |  |  |  | 
12 | CCCCCCCCCCCCCCCCCC(=O)OC[C@@H](O)COP(=O)([O-])OCC[N+](C)(C)C [LPC 18:0] | 72.4 | 1.2 | 64.4 | more than 90% | competitive inhibition |  |  | 
13 | CCCCCC(=O)OC[C@H](COP(=O)([O-])OCC[N+](C)(C)C)OC(=O)CCCCC [PC 6:0, 6:0] |  |  |  |  |  | 105.1 | 116.2 | 96.1
14 | CCCCCCC(=O)OC[C@H](COP(=O)([O-])OCC[N+](C)(C)C)OC(=O)CCCCCC [PC 7:0, 7:0] |  |  |  |  |  | 109.9 | 106.1 | 137.7
15 | CCCCCCCC(=O)OC[C@H](COP(=O)([O-])OCC[N+](C)(C)C)OC(=O)CCCCCCC [PC 8:0, 8:0] |  |  |  |  |  | 119.1 | 78.3 | 180.5
